Test results from publication PMC12040169 (PLOS Biology, 2025).

Assay: in vitro
Details: human, hela cells, % viability

## Cc1ccc(-c2ncc(OCC3CCCN3C)nc2N)c(C)c1 (centres unmarked) [CBK145137]
  viability at 28.5 h, 10 µM: 99.2%

## Cc1ccc(-c2ncc(OCCC(C)C)nc2N)cc1C [CBK145145]
  viability at 28.5 h, 10 µM: 90.5%

## Cc1ccc(-c2ncc(OCc3cccs3)nc2N)cc1C [CBK145146]
  viability at 28.5 h, 10 µM: 101%

## Cc1ccc(-c2ncc(OCCn3ccnc3)nc2N)cc1C [CBK145148]
  viability at 28.5 h, 10 µM: 102%

## Cc1ccc(-c2ncc(OCCN(C(C)C)C(C)C)nc2N)cc1C [CBK145150]
  viability at 28.5 h, 10 µM: 85.9%

## Nc1nc(OCCn2cccc2)cnc1-c1ccsc1 [CBK145162]
  viability at 28.5 h, 10 µM: 92.1%

## Cn1cc(-c2ncc(OCCc3c[nH]c4ccccc34)nc2N)cn1 [CBK145166]
  viability at 28.5 h, 10 µM: 88.3%

## Cn1cc(-c2ncc(OCc3ccc4c(c3)OCO4)nc2N)cn1 [CBK145168]
  viability at 28.5 h, 10 µM: 105%

## Cn1cc(-c2ncc(OCCn3cccc3)nc2N)cn1 [CBK145170]
  viability at 28.5 h, 10 µM: 107%

## COc1cccc(Oc2cnc(-c3cccc(C(F)(F)F)c3)c(N)n2)c1 [CBK145177]
  viability at 28.5 h, 10 µM: 94.2%

## CN(C)C(=O)c1ccc(-c2ncc(OCCN3CCOCC3)nc2N)cc1 [CBK145183]
  viability at 28.5 h, 10 µM: 93.1%

## CN(C)C(=O)c1ccc(-c2ncc(OCCN3CCCC3=O)nc2N)cc1 [CBK145184]
  viability at 28.5 h, 10 µM: 97.5%

## Cn1c(=O)c2c(ncn2CCOc2cnc(-c3cnn(Cc4ccccc4)c3)c(N)n2)n(C)c1=O [CBK145193]
  viability at 28.5 h, 10 µM: 97.4%

## Nc1nc(OCc2ccncc2)cnc1-c1cnn(Cc2ccccc2)c1 [CBK145194]
  viability at 28.5 h, 10 µM: 96.7%

## CN1CCN(C(=O)c2cccc(-c3ncc(OCC(F)(F)F)nc3N)c2)CC1 [CBK145196]
  viability at 28.5 h, 10 µM: 91.3%

## Nc1nc(OCCN2CCCC2=O)cnc1-c1cc(Cl)cc(Cl)c1 [CBK145199]
  viability at 28.5 h, 10 µM: 89.3%

## CCC(CC)C(=O)Nc1nc(OC)cnc1-c1ccc(OCOC)cc1 [CBK145207]
  viability at 28.5 h, 10 µM: 108%

## COc1ccc(CC(=O)Nc2nc(OC)cnc2/C=C\c2ccccc2)cc1 [CBK145224]
  viability at 28.5 h, 10 µM: 98.7%

## COCc1cccc(-c2ncc(OC)nc2NC(=O)c2c(C)noc2C)c1 [CBK145237]
  viability at 28.5 h, 10 µM: 95.6%

## COCc1cccc(-c2ncc(OCCN3CCCC3=O)nc2NC(C)=O)c1 [CBK145239]
  viability at 28.5 h, 10 µM: 94.8%

## COCOc1ccc(-c2ncc(OC)nc2NC(=O)c2cc(C)oc2C)cc1 [CBK145249]
  viability at 28.5 h, 10 µM: 97.6%

## COCOc1ccc(-c2ncc(OC)nc2NC(=O)c2cc3ccccc3s2)cc1 [CBK145250]
  viability at 28.5 h, 10 µM: 103%

## COc1cnc(-c2ccccc2OC)c(NC(C)=O)n1 [CBK145259]
  viability at 28.5 h, 10 µM: 89.1%

## COc1cnc(-c2ccccc2OC)c(NC(=O)c2ccccc2)n1 [CBK145261]
  viability at 28.5 h, 10 µM: 101%

## COc1ccccc1-c1ncc(OCC(F)(F)F)nc1NC(=O)c1ccco1 [CBK145277]
  viability at 28.5 h, 10 µM: 98.3%

## COc1cnc(-c2ccsc2)c(NC(=O)CC(C)C)n1 [CBK145292]
  viability at 28.5 h, 10 µM: 94%

## COc1ccc(C(=O)Nc2nc(OC)cnc2-c2ccsc2)cc1 [CBK145293]
  viability at 28.5 h, 10 µM: 81.4%

## O=C(Cc1ccccc1)Nc1nc(OCC(F)(F)F)cnc1-c1ccsc1 [CBK145298]
  viability at 28.5 h, 10 µM: 102%

## COc1cnc(-c2cccc(C(F)(F)F)c2)c(NC(=O)Cc2ccccc2)n1 [CBK145308]
  viability at 28.5 h, 10 µM: 104%

## COc1cnc(-c2cnn(C)c2)c(NC(=O)Cc2ccccc2)n1 [CBK145327]
  viability at 28.5 h, 10 µM: 101%

## COc1cnc(-c2cnn(C)c2)c(NC(=O)C2CC2)n1 [CBK145328]
  viability at 28.5 h, 10 µM: 104%

## COc1cnc(-c2cnn(C)c2)c(NC(=O)c2ccco2)n1 [CBK145329]
  viability at 28.5 h, 10 µM: 103%

## COc1cnc(-c2cc(Cl)cc(Cl)c2)c(NC(C)=O)n1 [CBK145333]
  viability at 28.5 h, 10 µM: 105%

## CCC(CC)C(=O)Nc1nc(OC)cnc1-c1cc(Cl)cc(Cl)c1 [CBK145338]
  viability at 28.5 h, 10 µM: 95.8%

## COc1cnc(-c2cc(Cl)cc(Cl)c2)c(NC(=O)c2ccsc2)n1 [CBK145340]
  viability at 28.5 h, 10 µM: 87.8%

## COCC(=O)Nc1nc(OC)cnc1/C=C\c1ccccc1 [CBK145360]
  viability at 28.5 h, 10 µM: 113%

## COc1cnc(/C=C\c2ccccc2)c(NC(=O)c2ccco2)n1 [CBK145361]
  viability at 28.5 h, 10 µM: 90.4%

## COc1ccc(C(=O)Nc2nc(OCC(F)(F)F)cnc2/C=C\c2ccccc2)c(OC)c1 [CBK145367]
  viability at 28.5 h, 10 µM: 104%

## O=C(Nc1nc(OCCN2CCCC2=O)cnc1/C=C\c1ccccc1)c1cc2ccccc2s1 [CBK145380]
  viability at 28.5 h, 10 µM: 115%

## CCC(CC)C(=O)Nc1nc(OC)cnc1-c1cccc(C(=O)N(C)C)c1 [CBK145392]
  viability at 28.5 h, 10 µM: 98.5%

## CC(=O)Nc1nc(OCC(F)(F)F)cnc1-c1cccc(C(=O)N(C)C)c1 [CBK145401]
  viability at 28.5 h, 10 µM: 96%

## COc1cnc(-c2ccccc2)c(NC(C)=O)n1 [CBK145410]
  viability at 28.5 h, 10 µM: 93.4%

## CC(=O)Nc1nc(OCC(F)(F)F)cnc1-c1ccc2c(c1)OCO2 [CBK145427]
  viability at 28.5 h, 10 µM: 91.8%

## CCCCN(C)c1c(CC)nc2ccc(C(=O)NCCN3CCCC3)cn12 [CBK145440]
  viability at 28.5 h, 10 µM: 96.2%

## CCCCN(C)c1c(CC)nc2ccc(C(=O)Nc3ccc(OC)c(OC)c3)cn12 [CBK145445]
  viability at 28.5 h, 10 µM: 95.5%

## CCCCN(C)c1c(CC)nc2ccc(C(=O)NC3=NC(=O)CS3)cn12 [CBK145464]
  viability at 28.5 h, 10 µM: 102%

## CCc1nc2ccc(C(=O)Nc3ccc(C(N)=O)cc3)cn2c1N(CCN(C)C)CC1CC1 [CBK145468]
  viability at 28.5 h, 10 µM: 87.1%

## CCc1nc2ccc(C(=O)Nc3ccc(C(N)=O)cc3)cn2c1N(C)CCC(C)C [CBK145476]
  viability at 28.5 h, 10 µM: 90.7%

## CCCCNC(=O)c1ccc2nc(CC)c(N(C)CCC(C)C)n2c1 [CBK145477]
  viability at 28.5 h, 10 µM: 100%

## CCc1nc2ccc(C(=O)N(C)Cc3ccco3)cn2c1N(C)C(=O)c1ccncc1 [CBK145479]
  viability at 28.5 h, 10 µM: 90.9%

## CCc1nc2ccc(C(=O)Nc3cccc(OC)c3)cn2c1N(C)Cc1cccs1 [CBK145522]
  viability at 28.5 h, 10 µM: 96.7%

## CCc1nc2ccc(C(=O)NCCCN3CCCC3=O)cn2c1N(C)Cc1cccs1 [CBK145536]
  viability at 28.5 h, 10 µM: 95%

## CCc1nc2ccc(C(=O)N(C)Cc3ccco3)cn2c1N(C)Cc1cccs1 [CBK145552]
  viability at 28.5 h, 10 µM: 98.5%

## CCc1nc2ccc(C(=O)NC3=NN(c4ccccc4)C(=O)C3)cn2c1N(C)Cc1cccs1 [CBK145557]
  viability at 28.5 h, 10 µM: 93%

## CCc1nc2ccc(C(=O)NCC3CCCCC3)cn2c1N(C)Cc1ccc(OC)cc1 [CBK145568]
  viability at 28.5 h, 10 µM: 91.1%

## CCc1nc2ccc(C(=O)N3CCN(C)CC3)cn2c1N(C)Cc1ccc(NC(C)=O)cc1 [CBK145603]
  viability at 28.5 h, 10 µM: 87%

## CCCCN(C=O)c1c(CC)nc2ccc(C(=O)N3CCN(C)CC3)cn12 [CBK145707]
  viability at 28.5 h, 10 µM: 93.1%

## CCCCN(C=O)c1c(CC)nc2ccc(C(=O)NCC3CCCCC3)cn12 [CBK145708]
  viability at 28.5 h, 10 µM: 85.3%

## CCCCN(C(C)=O)c1c(CC)nc2ccc(C(=O)NCCCn3ccnc3)cn12 [CBK145759]
  viability at 28.5 h, 10 µM: 96.1%

## CCCCNC(=O)c1ccc2nc(CC)c(N(C)C(=O)C3CCCCC3)n2c1 [CBK145791]
  viability at 28.5 h, 10 µM: 88.9%

## CCc1nc2ccc(C(=O)NC3=NC(=O)CS3)cn2c1N(CC)C(C)=O [CBK145839]
  viability at 28.5 h, 10 µM: 100%

## CCc1nc2ccc(C(=O)NCCCN3CCCC3=O)cn2c1N(C)C(=O)COc1ccccc1 [CBK145855]
  viability at 28.5 h, 10 µM: 98.7%

## Cc1nc2ccc(C(=O)N(C)CCN(C)C)cn2c1N(C)CC1CCCCC1 [CBK145894]
  viability at 28.5 h, 10 µM: 96.7%

## CCc1nc2ccc(C(=O)Nc3ccc4c(c3)CCN4C(C)=O)cn2c1N(C=O)CC [CBK145944]
  viability at 28.5 h, 10 µM: 102%

## CCN(CC)c1c(C)nc2ccc(C(=O)NCCc3ccccn3)cn12 [CBK145951]
  viability at 28.5 h, 10 µM: 94.9%

## CCN(CC)c1c(C)nc2ccc(C(=O)N3CCN(C)CC3)cn12 [CBK145955]
  viability at 28.5 h, 10 µM: 91.5%

## CCN(CC)c1c(C)nc2ccc(C(=O)NCc3ccc(N(C)C)cc3)cn12 [CBK145961]
  viability at 28.5 h, 10 µM: 92.7%

## CCN(CC)c1c(C)nc2ccc(C(=O)NCCN3CCNC3=O)cn12 [CBK145977]
  viability at 28.5 h, 10 µM: 97.8%

## CCN(CC)c1c(C)nc2ccc(C(=O)Nc3cc(-c4ccccc4)ccc3OC)cn12 [CBK145980]
  viability at 28.5 h, 10 µM: 121%

## CCCCN(C)c1c(C)nc2ccc(C(=O)N(C)CCCN(C)C)cn12 [CBK146006]
  viability at 28.5 h, 10 µM: 103%

## CCc1nc2ccc(C(=O)Nc3ccc(Cl)c(Cl)c3)cn2c1N(CC)CCOC [CBK146042]
  viability at 28.5 h, 10 µM: 94%

## Cc1nc2ccc(C(=O)NC3=NC(=O)CS3)cn2c1N(C)Cc1cccs1 [CBK146110]
  viability at 28.5 h, 10 µM: 86.3%

## CCc1nc2ccc(C(=O)N3CCNC(=O)C3)cn2c1N(CCC(C)C)CCN(C)C [CBK146255]
  viability at 28.5 h, 10 µM: 92.4%

## CCNC(=O)N(C)c1c(CC)nc2ccc(C(=O)N3CCN(C(C)=O)CC3)cn12 [CBK146362]
  viability at 28.5 h, 10 µM: 104%

## CCc1nc2ccc(C(=O)N3CCCCC3)cn2c1N(C)C(=O)c1cccc(OC)c1 [CBK146392]
  viability at 28.5 h, 10 µM: 113%

## Cc1nc2ccc(C(=O)N3CCN(c4ccccc4)CC3)cn2c1N(C)C(=O)c1cccs1 [CBK146544]
  viability at 28.5 h, 10 µM: 99%

## COc1ccccc1CNC(=O)c1ccc2nc(C)c(N(C)C(=O)c3cccs3)n2c1 [CBK146546]
  viability at 28.5 h, 10 µM: 86.9%

## CCc1nc2ccc(C(=O)N(C)CCN(C)C)cn2c1N(C)Cc1cc2ccccc2s1 [CBK146551]
  viability at 28.5 h, 10 µM: 89.3%

## CCc1nc2ccc(C(=O)NCCN3CCOCC3)cn2c1N(C)Cc1cc2ccccc2s1 [CBK146561]
  viability at 28.5 h, 10 µM: 101%

## CCc1nc2ccc(C(=O)NC3CCN(C)CC3)cn2c1N(C)C=O [CBK146594]
  viability at 28.5 h, 10 µM: 108%

## CCc1nc2ccc(C(=O)NCCN3CCOCC3)cn2c1N(C=O)Cc1ccc(OC)cc1 [CBK146625]
  viability at 28.5 h, 10 µM: 97.9%

## CCc1nc2ccc(C(=O)Nc3cccc(NS(C)(=O)=O)c3)cn2c1N(C)CCCc1ccccc1 [CBK146670]
  viability at 28.5 h, 10 µM: 101%

## CCc1nc2ccc(C(=O)NCCN(C)C)cn2c1N(CC)CC(=O)N(C)C [CBK146762]
  viability at 28.5 h, 10 µM: 89.6%

## Cc1nc2ccc(C(=O)N3CCN(C)CC3)cn2c1N(C)C(=O)CCc1ccccc1 [CBK146786]
  viability at 28.5 h, 10 µM: 95.3%

## CCc1nc2ccc(C(=O)N3CCC(O)(Cc4ccccc4)CC3)cn2c1N(CC)C(=O)CCC1CCCC1 [CBK146854]
  viability at 28.5 h, 10 µM: 88.1%

## CCc1nc2ccc(C(=O)Nc3ccc(NC(C)=O)cc3)cn2c1N(C)C(=O)Cc1ccccc1 [CBK146855]
  viability at 28.5 h, 10 µM: 95.3%
